# Where two headings read alike, the source gives them in different places.
# How the values were obtained:
# [1] = tested on: IL-6 secretion in LPS-stimulated THP-1 cells; assay: Cell-based IL-6 quantification assay (ELISA, Mesoscale); conditions: LPS 4 μg/mL, 16 h, read-out: IL-6 Cellular EC50
# Description: Cell-Based IL-6 Quantification Assay (ELISA, Mesoscale Assay):
# 100,000 THP-1 cells were seeded in RPMI1640-10% FBS in 96-well plates. LPS (E. Coli Invitrogen) in RPMI-10% FBS at a final concentration of 4 μg/mL was added to the wells and the cells are then incubated in the presence of various concentrations of compounds for 16 h. Plates are spun ([…], 5 min), an aliquot of 25 uL supernatant is transferred in to an ELISA plate (Mesoscale technology, MSD) and the detection of IL-6 is performed using manufacturer's instructions. The amount of cells in each well is assessed using CellTiter-Glo® (Promega). The ratio of ELISA value/CellTiter-Glo value is used to calculate the percent of inhibition of IL-6 secretion.
# BRD4(BD1) = BRD4(BD1) (Homo sapiens (Human), UniProt O60885); assay: BRD4 AlphaLisa binding assay; conditions: BRD4(BD1) 30 nM, H4-tetraacetyl peptide 200 nM; read-out: AlphaScreen IC50
# Description: IC50 Measurements for Inhibitors Using BRD4 AlphaLisa Binding Assay
# His/Flag epitope tagged BRD4 BD142-168 was cloned, expressed and purified to homogeneity. BRD4 binding and inhibition was assessed by monitoring the engagement of biotinylated H4-tetraacetyl peptide (Millipore #12-379) with the target using the AlphaLisa technology (Perkin-Elmer). Specifically, in a 384 well ProxiPlate BRD4(BD1) (30 nM final) was combined with peptide (200 nM final) in 40 mM HEPES (pH 7.0), 40 mM NaCl, 1 mM DTT, 0.01% (w/v) BSA, and 0.008% (w/v) Brij-35 either in the presence of DMSO (final 1.2% DMSO) or compound dilution series in DMSO. After 20 minute incubation at room temperature Alpha streptavidin donor beads and AlphaLisa anti-Flag acceptor beads were added to a final concentration of 10 ug/mL each. After three hours equilibration plates were read on an Envision instrument and IC50s calculated using a four parameter non-linear curve fit.
# [2] = tested on: MYC mRNA in MV4:11 (AML) or Raji (Burkitt's lymphoma) cells; assay: cMyc RNA quantification assay (QuantiGene); assay type: cell-based; conditions: MV4:11 or Raji cells, 4 h; read-out: MYC Cellular EC50
# Description: cMyc RNA Quantification Assay (QuantiGene® Assay):
# MV4:11 (AML) or Raji (Burkitt's lymphoma) cells were seeded in a 96-well plate and incubated in the presence of various concentrations of compounds for 4 h. Relative mRNA levels were quantitated by using QuantiGene 2.0 assay (Affymetrix) according to the manufacturer's recommendation. Signals were detected by using an Envision plate reader (Perkin-Elmer). Biological duplicates were averaged and normalized to vehicle (DMSO) control to calculate percent MYC mRNA levels.
# [3] = tested on: MV4-11 lymphoblast cell subcutaneous xenograft; assay: Tumor growth inhibition in MV4-11 subcutaneous xenograft mouse model; assay type: in vivo; conditions: female nude mice, all cohorts: 1.5-3 mg/kg SC BID/QD, 3-10 mg/kg PO QD (Table 3)
# Description: This study investigated the effects of Compound 401 on tumor growth inhibition in an MV4-11 lymphoblast cell subcutaneous xenograft mouse model.
# A total number of 120 female nude mice were purchased. These mice were allowed 3 days of acclimatization period before experiments started. The cell suspension was carried to the animal room in an ice box. Mice were implanted subcutaneously (s.c.) with 200 μL of 10×10^6 MV4-11 cells in 50% Matrigel in the right flank at the beginning of the study. All the mice were observed everyday to monitor the health and tumor size.
# When tumors reached an average volume of 150-200 mm^3, 100 out of the 120 mice were selected based on their tumor volume and randomly assigned to 10 groups prior to dosing. Each group consisted of 10 tumor-bearing mice (n=10/group).
# Tumor-bearing mice were treated with Compound 401 or vehicle, by subcutaneous injection (5 mL/kg) or oral dose (10 mL/kg) starting on the day after randomization for 29 days according to Table 3.
# Mice were weighed at each dosing and recorded every day. Mice were observed closely for any overt signs of adverse, treatment-related side effects, which if any were recorded. […] Tumor size was measured three times a week in two dimensions using a caliper, and the tumor volume (V) was expressed in mm^3 using the formula: V=0.5 a×b^2 where a and b were the long and short diameters of the tumor, respectively. […]
# 143B = assay: In vitro cancer cell line growth inhibition (GI50); assay type: cell-based; conditions: Homo sapiens, Osteosarcoma, 72 hours, resazurin
# Description: (§1) Method for GI50 Determination
# (§2) Adherent cells were plated in 96-well plates and the following day compound titrations were added to the cells. Suspensions cells were plated directly in 96-well plates containing compound titrations. Compound titrations were comprised of 9 two-fold dilutions. Cells were incubated for 72 hours before analysis of viability with resazurin. Viability relative to DMSO treated cells was plotted to determine the absolute GI50 values.
# SU-DHL-8 = assay: In vitro cancer cell line growth inhibition (GI50); assay type: cell-based; conditions: Homo sapiens; SU-DHL-8, DLBCL, 72 hours, resazurin
# Description: as §1, §2
# ML-2 = assay: In vitro cancer cell line growth inhibition (GI50); assay type: cell-based; conditions: Homo sapiens; ML-2, AML, 72 hours, resazurin
# Description: as §1, §2
# U2932 = assay: In vitro cancer cell line growth inhibition (GI50); assay type: cell-based; conditions: Homo sapiens; U2932, DLBCL, 72 hours, resazurin
# Description: as §1, §2
# H526 = assay: In vitro cancer cell line growth inhibition (GI50); assay type: cell-based; conditions: Homo sapiens, NCI-H526; H526, Lung, 72 hours, resazurin
# Description: as §1, §2
# OPM2 = assay: In vitro cancer cell line growth inhibition (GI50); assay type: cell-based; conditions: Homo sapiens, OPM-2; OPM2, Multiple myeloma, 72 hours, resazurin
# Description: as §1, §2
# DLD-1 = assay: In vitro cancer cell line growth inhibition (GI50); assay type: cell-based; conditions: Homo sapiens; DLD-1, Colorectal, 72 hours, resazurin
# Description: as §1, §2
# SU-DHL-6 = assay: In vitro cancer cell line growth inhibition (GI50); assay type: cell-based; conditions: Homo sapiens; SU-DHL-6, DLBCL, 72 hours, resazurin
# Description: as §1, §2
# OCI-LY-19 = assay: In vitro cancer cell line growth inhibition (GI50); assay type: cell-based; conditions: Homo sapiens, OCI-LY19; OCI-LY-19, DLBCL, 72 hours, resazurin
# Description: as §1, §2
# HT29 = assay: In vitro cancer cell line growth inhibition (GI50); assay type: cell-based; conditions: Homo sapiens, HT-29; HT29, Colorectal, 72 hours, resazurin
# Description: as §1, §2
# WSU-DLCL-2 = assay: In vitro cancer cell line growth inhibition (GI50); assay type: cell-based; conditions: Homo sapiens, WSUDLCL2; WSU-DLCL-2, DLBCL, 72 hours, resazurin
# Description: as §1, §2
# H23 = assay: In vitro cancer cell line growth inhibition (GI50); assay type: cell-based; conditions: Homo sapiens, NCI-H23; H23, Lung, 72 hours, resazurin
# Description: as §1, §2
# A549 = assay: In vitro cancer cell line growth inhibition (GI50); assay type: cell-based; conditions: Homo sapiens; A549, Lung, 72 hours, resazurin
# Description: as §1, §2
# MV4-11 = assay: In vitro cancer cell line growth inhibition (GI50); assay type: cell-based; conditions: Homo sapiens; MV4-11, AML, 72 hours, resazurin
# Description: as §1, §2
# THP-1 = assay: In vitro cancer cell line growth inhibition (GI50); assay type: cell-based; conditions: Homo sapiens; THP-1, AML, 72 hours, resazurin
# Description: as §1, §2
# KMS11 = assay: In vitro cancer cell line growth inhibition (GI50); assay type: cell-based; conditions: Homo sapiens, KMS-11; KMS11, Multiple myeloma, 72 hours, resazurin
# Description: as §1, §2
# SU-DHL-4 = assay: In vitro cancer cell line growth inhibition (GI50); assay type: cell-based; conditions: Homo sapiens; SU-DHL-4, DLBCL, 72 hours, resazurin
# Description: as §1, §2
# LP1 = assay: In vitro cancer cell line growth inhibition (GI50); assay type: cell-based; conditions: Homo sapiens, LP-1; LP1, Multiple myeloma, 72 hours, resazurin
# Description: as §1, §2
# HT = assay: In vitro cancer cell line growth inhibition (GI50); assay type: cell-based; conditions: Homo sapiens, DLBCL, 72 hours, resazurin
# Description: as §1, §2
# KARPAS 422 = assay: In vitro cancer cell line growth inhibition (GI50); assay type: cell-based; conditions: Homo sapiens; KARPAS 422, DLBCL, 72 hours, resazurin
# Description: as §1, §2
# ZR-75-1 = assay: In vitro cancer cell line growth inhibition (GI50); assay type: cell-based; conditions: Homo sapiens; ZR-75-1, Breast, 72 hours, resazurin
# Description: as §1, §2
# A2780 = assay: In vitro cancer cell line growth inhibition (GI50); assay type: cell-based; conditions: Homo sapiens; A2780, Ovarian, 72 hours, resazurin
# Description: as §1, §2
# DOHH2 = assay: In vitro cancer cell line growth inhibition (GI50); assay type: cell-based; conditions: Homo sapiens, DOHH-2; DOHH2, DLBCL, 72 hours, resazurin
# Description: as §1, §2
# DB = assay: In vitro cancer cell line growth inhibition (GI50); assay type: cell-based; conditions: Homo sapiens, DLBCL, 72 hours, resazurin
# Description: as §1, §2
# SU-DHL-5 = assay: In vitro cancer cell line growth inhibition (GI50); assay type: cell-based; conditions: Homo sapiens; SU-DHL-5, DLBCL, 72 hours, resazurin
# Description: as §1, §2
# SU-DHL-10 = assay: In vitro cancer cell line growth inhibition (GI50); assay type: cell-based; conditions: Homo sapiens, SU-DHL10; SU-DHL-10, DLBCL, 72 hours, resazurin
# Description: as §1, §2
# MOLM-13 = assay: In vitro cancer cell line growth inhibition (GI50); assay type: cell-based; conditions: Homo sapiens; MOLM-13, AML, 72 hours, resazurin
# Description: as §1, §2
compound,measurement,setting,value
"Cc1noc(-c2ccc3c(c2)C(c2ccc(Cl)cc2)=N[C@@H](CC(N)=O)c2onc(C)c2-3)n1 [Compound 404, 2-((4S)-6-(4-chlorophenyl)-1-methyl-8-(3-methyl-1,2,4-oxadiazol-5-yl)-4H-benzo[c]isoxazolo[4,5-e]azepin-4-yl)acetamide]",EC50,[1]; Homo sapiens,36 nM
same,IC50,BRD4(BD1),270 nM
same,EC50,[2],206 nM
Cc1noc2c1-c1ccc(-c3cnn(C)c3)cc1C(c1ccc(Cl)cc1)=N[C@H]2CC(=O)N(C)C [Compound 402],EC50,[1]; Homo sapiens,7 nM
same,IC50,BRD4(BD1),13 nM
same,EC50,[2],23 nM
Cc1ccc(-c2ccc3c(c2)C(c2ccc(Cl)cc2)=N[C@@H](CC(N)=O)c2onc(C)c2-3)cn1 [Compound 403],EC50,[1]; Homo sapiens,29 nM
same,IC50,BRD4(BD1),28 nM
same,EC50,[2],36 nM
"Cc1noc2c1-c1ccc(-c3cnn(C)c3)cc1C(c1ccc(Cl)cc1)=N[C@H]2CC(N)=O [Compound 401, 2-((4S)-6-(4-Chlorophenyl)-1-methyl-8-(1-methyl-1H-pyrazol-4-yl)-4H-benzo[c]isoxazolo[4,5-e]azepin-4-yl)acetamide]",EC50,[1]; Homo sapiens,15 nM
same,IC50,BRD4(BD1),14 nM
same,tumor volume reduction,[3],Statistically significant reductions in tumor volumes
same,EC50,[2],13 nM
same,GI50,143B,230 nM
same,GI50,SU-DHL-8,100 nM
same,GI50,ML-2,60 nM
same,GI50,U2932,625 nM
same,GI50,H526,10 nM
same,GI50,OPM2,10 nM
same,GI50,DLD-1,480 nM
same,GI50,SU-DHL-6,60 nM
same,GI50,OCI-LY-19,60 nM
same,GI50,HT29,200 nM
same,GI50,WSU-DLCL-2,45 nM
same,GI50,H23,210 nM
same,GI50,A549,460 nM
same,GI50,MV4-11,15 nM
same,GI50,THP-1,65 nM
same,GI50,KMS11,100 nM
same,GI50,SU-DHL-4,150 nM
same,GI50,LP1,5 nM
same,GI50,HT,100 nM
same,GI50,KARPAS 422,20 nM
same,GI50,ZR-75-1,300 nM
same,GI50,A2780,90 nM
same,GI50,DOHH2,60 nM
same,GI50,DB,150 nM
same,GI50,SU-DHL-5,325 nM
same,GI50,SU-DHL-10,100 nM
same,GI50,MOLM-13,90 nM
"Cc1noc2c1-c1ccc(-c3cnn(C)c3)cc1C(c1ccc(Cl)cc1)=N[C@H]2CC(N)=O [Compound 400, 2-((4S)-6-(4-chlorophenyl)-1-methyl-8-(1-trideuteromethyl-1H-pyrazol-4-yl)-4H-benzo[c]isoxazolo[4,5-e]azepin-4-yl)-^15N-acetamide]",EC50,[1],5 nM
same,IC50,BRD4(BD1),18 nM
same,EC50,[2],8 nM
Cc1noc2c1-c1ccc(-c3cnn(C)c3)cc1C(c1ccc(Cl)cc1)=N[C@H]2CC(=O)O [Compound 405],EC50,[1]; Homo sapiens,420 nM
same,IC50,BRD4(BD1),175 nM
same,EC50,[2],833 nM

# From patent publication US9493483B2, “Benzo [C] isoxazoloazepine bromodomain inhibitors and uses thereof” (Constellation Pharmaceuticals, Inc., priority 2012, dated 2016)
